The text below walks through data of patent US20250367235A1, “SYSTEMS AND METHODS FOR MODULATING A CELL PHENOTYPE” (XCELL BIOSCIENCES, INC., priority 2019, published 2025).

The assay has as its system PC-3, a prostate cancer cell line. The assay can be described thus: PBMC tumor cell killing co-culture with anti-PD-1 antibodies, cell viability by CellTiter Glo. It is filed as cell-based, human. To be noted: 1% O2, 2 PSI above ambient pressure vs ambient conditions; antibody 10 ug/ml; PBMCs with PC-3 at effector to target ratio 20:1; 5 days; average of 21 PBMC isolates; FIG. 2. As to the method: PBMCs were isolated from 21 healthy volunteers. The PBMCs were cultured together with target tumor cells, (PC-3, a prostate cancer cell line), at an effector to target ratio of 20:1. All cells were cultured in RPMI1640 medium supplemented with 10% fetal bovine serum over a 5 day period. PBMCs were not activated with IL-2. Cell viability was measured at the end of the 5 day period by CellTiter Glo Assay (Promega) with 3 or 4 technical replicates. Each of the 21 PBMC isolates, and target cells, was cultured under either ambient conditions, or hypoxic and hyperbaric conditions (1% O2, 2 PSI above ambient pressure), and with or without anti-PD-1 antibodies. The anti-PD-1 antibodies used were Nivolumab and Pembrolizumab (10 ug/ml). Average results across the 21 different PBMC isolates are shown in FIG. 2, with error bars representing the standard error of the mean, and p values were calculated using paired Student's t tests.
A general note: Cellular ATP, detected with luciferase, serves as a proxy for viable cell number.

Regarding Nivolumab, the “effect of hypoxic and hyperbaric conditions on efficacy of treatment at activating PBMCs to kill tumor cells” value is “did not have a noticeable effect”.

Take Pembrolizumab: the “effect of hypoxic and hyperbaric conditions on efficacy of treatment at activating PBMCs to kill tumor cells” value is “more efficient at activating PBMCs to kill tumor cells”.
